Tested on: IL-1β release from THP-1 cells
Test: IL-1β Release Assay (Alternate Method), THP-1 cells
Type: cell-based, human
Conditions: Homo sapiens, THP-1, read-out: IL-1β % inhibition
Method in brief: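 IL-1β release, measured by ELISA, follows 45 min BzATP (250 uM final) stimulation of THP-1 cells given 30 min compound pretreatment. Cells were first primed 16 h with LPS and IFN-γ (100 ng/mL each), then 2 h with fresh LPS; inhibition expressed in percent after background correction.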

Compound	inhibition at 0.3 µM [%]
O=C(Nc1ncnc2c1CCN(S(=O)(=O)c1ccccc1)C2)C12CC3CC(CC(C3)C1)C2 [Compound 481]	25 to 50
O=C(CC12CC3CC(CC(C3)C1)C2)Nc1ncnc2c1CCN(S(=O)(=O)c1ccccc1)C2 [Compound 143]	0 to 25

Same assay, conditions: at 0.3 μM; THP-1 cells

Compound	IL-1β % inhibition
O=C(CC1CCCCC1)Nc1ncnc2c1CCNC2 [Compound 11]	+ (compound exhibited 0-25% inhibition at 0.3 μM)
O=C(CC12CC3CC(CC(C3)C1)C2)Nc1ncnc2c1CCN(C(=O)C1CC1)C2 [Compound 260]	+++ (compound exhibited 50-75% inhibition at 0.3 μM)
COc1ccc(CC(=O)N2CCc3c(ncnc3NC(=O)CC34CC5CC(CC(C5)C3)C4)C2)cc1 [Compound 224]	+ (compound exhibited 0-25% inhibition at 0.3 μM)
CC(C)(C)c1ccc(CN2CCc3c(ncnc3NC(=O)CC34CC5CC(CC(C5)C3)C4)C2)cc1 [Compound 71]	+ (compound exhibited 0-25% inhibition at 0.3 μM)
Cc1ccc(F)cc1S(=O)(=O)N1CCc2c(ncnc2NC(=O)CC23CC4CC(CC(C4)C2)C3)C1 [Compound 212]	+++ (compound exhibited 50-75% inhibition at 0.3 μM)
O=C(CC12CC3CC(CC(C3)C1)C2)Nc1ncnc2c1CCN(S(=O)(=O)c1cccc(Cl)c1)C2 [Compound 168]	++++ (compound exhibited 75% or greater inhibition at 0.3 μM)
COc1cccc(CC(=O)N2CCc3c(ncnc3NC(=O)CC34CC5CC(CC(C5)C3)C4)C2)c1 [Compound 261]	+ (compound exhibited 0-25% inhibition at 0.3 μM)
Cc1ccc(C(=O)N2CCc3c(ncnc3NC(=O)CC34CC5CC(CC(C5)C3)C4)C2)cc1 [Compound 291]	++++ (compound exhibited 75% or greater inhibition at 0.3 μM)
CC(C)(C(=O)Nc1ncnc2c1CCN(Cc1ccc3c(c1)OCCO3)C2)C12CC3CC(CC(C3)C1)C2 [Compound 350]	+ (compound exhibited 0-25% inhibition at 0.3 μM)
COc1cccc(CN2CCc3c(ncnc3C(=O)NCC34CC5CC(CC(C5)C3)C4)C2)c1 [Compound 335]	++ (compound exhibited 25-50% inhibition at 0.3 μM)
CC12CC3CC(C)(C1)CC(CC(=O)Nc1ncnc4c1CCN(C(=O)c1ccc(Cl)c(Cl)c1)C4)(C3)C2 [Compound 385]	+ (compound exhibited 0-25% inhibition at 0.3 μM)
Cc1ccccc1C(=O)N1CCc2c(ncnc2NC(=O)CC23CC4CC(CC(C4)C2)C3)C1 [Compound 278]	+++ (compound exhibited 50-75% inhibition at 0.3 μM)
O=C(CC12CC3CC(CC(C3)C1)C2)Nc1ncnc2c1CCN(Cc1ccc(-c3ccccc3)s1)C2 [Compound 79]	+ (compound exhibited 0-25% inhibition at 0.3 μM)
CC12CC3CC(C)(C1)CC(CC(=O)Nc1ncnc4c1CCN(S(=O)(=O)c1cccc(Cl)c1)C4)(C3)C2 [Compound 380]	+ (compound exhibited 0-25% inhibition at 0.3 μM)
O=C(CC12CC3CC(CC(C3)C1)C2)Nc1ncnc2c1CCN(Cc1cccc(C(F)(F)F)c1)C2 [Compound 70]	+ (compound exhibited 0-25% inhibition at 0.3 μM)
O=C(O)COc1ccc(CN2CCc3c(ncnc3NC(=O)CC34CC5CC(CC(C5)C3)C4)C2)cc1 [Compound 140]	+ (compound exhibited 0-25% inhibition at 0.3 μM)

Compound	IL-1β % inhibition
Cc1ccc(CN2CCc3c(ncnc3NC(=O)CC34CC5CC(CC(C5)C3)C4)C2)cc1F [Compound 85]	+ (compound exhibited 0-25% inhibition at 0.3 μM)
CS(=O)(=O)c1ccc(CN2CCc3c(ncnc3NC(=O)CC34CC5CC(CC(C5)C3)C4)C2)cc1 [Compound 15]	+ (compound exhibited 0-25% inhibition at 0.3 μM)
CC12CC3CC(C)(C1)CC(CC(=O)Nc1ncnc4c1CCN(C(=O)CC1CCCC1)C4)(C3)C2 [Compound 384]	++ (compound exhibited 25-50% inhibition at 0.3 μM)
O=C(CC12CC3CC(CC(C3)C1)C2)Nc1ncnc2c1CCN(S(=O)(=O)c1ccc(F)cc1F)C2 [Compound 209]	++++ (compound exhibited 75% or greater inhibition at 0.3 μM)
CC(=O)N1CCC(C(=O)N2CCc3c(ncnc3NC(=O)CC34CC5CC(CC(C5)C3)C4)C2)CC1 [Compound 295]	+ (compound exhibited 0-25% inhibition at 0.3 μM)
Cc1cc(C(=O)N2CCc3c(ncnc3NC(=O)CC34CC5CC(CC(C5)C3)C4)C2)n(C)n1 [Compound 285]	+ (compound exhibited 0-25% inhibition at 0.3 μM)
Cc1cc(C(=O)N2CCc3c(ncnc3NC(=O)CC34CC5CC(CC(C5)C3)C4)C2)no1 [Compound 283]	+++ (compound exhibited 50-75% inhibition at 0.3 μM)
CC(C)(C(=O)Nc1ncnc2c1CCN(S(=O)(=O)Cc1ccccc1)C2)C12CC3CC(CC(C3)C1)C2 [Compound 353]	+ (compound exhibited 0-25% inhibition at 0.3 μM)
O=C(CC12CC3CC(CC(C3)C1)C2)Nc1ncnc2c1CCN(Cc1cc(F)cc(C(F)(F)F)c1)C2 [Compound 108]	+ (compound exhibited 0-25% inhibition at 0.3 μM)
COc1ccc(CN2CCc3c(ncnc3NC(=O)CC34CC5CC(CC(C5)C3)C4)C2)cc1Cl [Compound 324]	+ (compound exhibited 0-25% inhibition at 0.3 μM)
O=C(CC12CC3CC(CC(C3)C1)C2)Nc1ncnc2c1CCN(Cc1cccc(Cl)c1)C2 [Compound 34]	+ (compound exhibited 0-25% inhibition at 0.3 μM)
O=C(CC12CC3CC(CC(C3)C1)C2)Nc1ncnc2c1CCN(C(=O)c1ccc(Cl)c(Cl)c1)C2 [Compound 245]	+++ (compound exhibited 50-75% inhibition at 0.3 μM)
COc1ccc(OC)c(S(=O)(=O)N2CCc3c(ncnc3NC(=O)CC34CC5CC(CC(C5)C3)C4)C2)c1 [Compound 216]	+++ (compound exhibited 50-75% inhibition at 0.3 μM)
CS(=O)(=O)c1ccc(CN2CCc3c(ncnc3C(=O)NCC3CCCCC3)C2)cc1 [Compound 56]	+ (compound exhibited 0-25% inhibition at 0.3 μM)
CCCCc1nc(CN2CCc3c(ncnc3NC(=O)CC34CC5CC(CC(C5)C3)C4)C2)c[nH]1 [Compound 80]	++ (compound exhibited 25-50% inhibition at 0.3 μM)
O=C(CC12CC3CC(CC(C3)C1)C2)Nc1ncnc2c1CCN(CCc1ccccc1)C2 [Compound 14]	+ (compound exhibited 0-25% inhibition at 0.3 μM)

Same assay, conditions: at 0.3 μM; THP-1 cells, BzATP-stimulated

Compound	IL-1β % inhibition
CN1CCOc2cc(S(=O)(=O)N3CCc4c(ncnc4NC(=O)C45CC6CC(CC(C6)C4)C5)C3)ccc21 [Compound 494]	+++ (compound exhibited 50-75% inhibition at 0.3 μM)
Cc1ccc(S(=O)(=O)N2CCc3c(ncnc3NC(=O)C34CC5CC(CC(C5)C3)C4)C2)cc1 [Compound 482]	++ (compound exhibited 25-50% inhibition at 0.3 μM)
O=C(Nc1ncnc2c1CCN(S(=O)(=O)c1ccc(Oc3ccc(C(F)(F)F)cc3)cc1)C2)C12CC3CC(CC(C3)C1)C2 [Compound 510]	++++ (compound exhibited 75% or greater inhibition at 0.3 μM)
COc1ccc(CN2CCc3c(ncnc3NC(=O)C34CC5CC(CC(C5)C3)C4)C2)cc1 [Compound 562]	+ (compound exhibited 0-25% inhibition at 0.3 μM)
O=C(c1ccc2ccccc2n1)N1CCc2c(ncnc2NC(=O)C23CC4CC(CC(C4)C2)C3)C1 [Compound 471]	++ (compound exhibited 25-50% inhibition at 0.3 μM)
O=C(Nc1ncnc2c1CCN(S(=O)(=O)c1ccc(Cl)cc1)C2)C12CC3CC(CC(C3)C1)C2 [Compound 488]	+ (compound exhibited 0-25% inhibition at 0.3 μM)
O=C(Nc1ncnc2c1CCN(S(=O)(=O)c1ccc3ccccc3c1)C2)C12CC3CC(CC(C3)C1)C2 [Compound 483]	+++ (compound exhibited 50-75% inhibition at 0.3 μM)
O=C(c1ccccc1C(F)(F)F)N1CCc2c(ncnc2NC(=O)C23CC4CC(CC(C4)C2)C3)C1 [Compound 442]	++ (compound exhibited 25-50% inhibition at 0.3 μM)
O=C(Nc1ncnc2c1CCN(Cc1ccc(Cl)nc1)C2)C12CC3CC(CC(C3)C1)C2 [Compound 634]	+ (compound exhibited 0-25% inhibition at 0.3 μM)
O=C(Nc1ncnc2c1CCN(S(=O)(=O)c1ccc3c(c1)OCCO3)C2)C12CC3CC(CC(C3)C1)C2 [Compound 534]	+++ (compound exhibited 50-75% inhibition at 0.3 μM)
COc1cc(CN2CCc3c(ncnc3NC(=O)C34CC5CC(CC(C5)C3)C4)C2)ccc1OCc1ccccc1 [Compound 588]	++ (compound exhibited 25-50% inhibition at 0.3 μM)
O=C(Nc1ncnc2c1CCN(Cc1ccc3c(c1)OCO3)C2)C12CC3CC(CC(C3)C1)C2 [Compound 564]	++++ (compound exhibited 75% or greater inhibition at 0.3 μM)
O=C(c1c(F)cccc1Cl)N1CCc2c(ncnc2NC(=O)C23CC4CC(CC(C4)C2)C3)C1 [Compound 444]	+ (compound exhibited 0-25% inhibition at 0.3 μM)
Cc1ccc(C(=O)N2CCc3c(ncnc3NC(=O)C34CC5CC(CC(C5)C3)C4)C2)cc1 [Compound 461]	+ (compound exhibited 0-25% inhibition at 0.3 μM)
O=C(c1ccno1)N1CCc2c(ncnc2NC(=O)C23CC4CC(CC(C4)C2)C3)C1 [Compound 466]	+ (compound exhibited 0-25% inhibition at 0.3 μM)
COc1ccc(CN2CCc3c(ncnc3NC(=O)C34CC5CC(CC(C5)C3)C4)C2)c(OC)c1 [Compound 608]	+ (compound exhibited 0-25% inhibition at 0.3 μM)
O=C(Nc1ncnc2c1CCN(Cc1ccc(OC(F)(F)F)cc1)C2)C12CC3CC(CC(C3)C1)C2 [Compound 620]	++ (compound exhibited 25-50% inhibition at 0.3 μM)
COc1cc(F)c(CN2CCc3c(ncnc3NC(=O)C34CC5CC(CC(C5)C3)C4)C2)cc1OC [Compound 623]	+ (compound exhibited 0-25% inhibition at 0.3 μM)
O=C(Nc1ncnc2c1CCN(Cc1ccc(Br)cc1)C2)C12CC3CC(CC(C3)C1)C2 [Compound 597]	+++ (compound exhibited 50-75% inhibition at 0.3 μM)
N#Cc1ccc(S(=O)(=O)N2CCc3c(ncnc3NC(=O)C34CC5CC(CC(C5)C3)C4)C2)c(Cl)c1 [Compound 500]	+++ (compound exhibited 50-75% inhibition at 0.3 μM)

— patent US7297700B2, “Bicycloheteroaryl compounds as P2X7 modulators and uses thereof” (Renovis, Inc., priority 2005, dated 2007)
